These results are taken from patent EP2753335B1, “AN ANTHRACYCLINE FOR THE TREATMENT OF SEPSIS” (Instituto de Medicina Molecular, priority 2011, dated 2013).

Counter-ions that a name gives are not always drawn. Starred links: 1 amine or outer side, 2 acyl side, 3 side chain; linkers in the order of their positions; H or OH if unused. Positions of bridges follow the written chain, without caps; N, C: chain ends. Non-standard residues stand in square brackets, D forms with d. Residues, ends and D or L forms follow the SMILES beside them. Chains are numbered I, II in the order given. Actinocin(9to1) = Cc1c2oc3c(C)ccc(C(=O)[*:1])c3nc-2c(C(=O)[*:2])c(N)c1=O; NMeV = CN[C@H](C(=O)O)C(C)C; Sar = CNCC(=O)O

Series [1] deals with IL-1β. Briefly: Concentration-response validation: IL-1β production by E. coli challenged THP-1 cells. In kind it is cell-based, human. As to the method:
(§1) • Figure 1 represents a primary screen to identify compounds in the Spectrum Collection library that inhibit the secretion of TNF and IL-1β. (A) it is a two-dimension plot of TNF and IL-1β production Z scores calculated upon THP-1 cells challenge with PFA-fixed E. coli for 24 hours in the presence of 10µM of each compound. The square defines the area in which compounds are considered primary hits, i.e., inhibiting both TNF and IL-1β, (B) represents the IL-1β and TNF production by E. coli challenged THP-1 cells (4 hours) after a pre-incubation (1 hour) with increasing concentrations of epirubicin. Results shown represent mean ± standard deviation from triplicate samples in one of 3 independent assays. (C) is a transcriptional profiling of THP-1 cell line response to epirubicin and unsupervised clustering of microarray expression profiles. […] Plots depict relative expression of IL-1β, TNF, CCL2, CXCL10, STAT1, STAT2, START4 and STAT5a as assessed by qRT-PCR in E. coli challenged THP-1 cells (4 hours) after a pre-incubation (1 hour) with 5µM epirubicin. […] Results shown represent mean values ± SEM from triplicate readings per animal. […] (D) relates to the expression of IL-1β, TNF, CCL2 and CXCL10 as assessed by qRT-PCR in THP-1 cells treated as in (C). […]

The subject of series [2] is IL-1β. Briefly: In vitro chemical screen (Spectrum collection): IL-1β secretion by E. coli challenged THP-1 cells, DAS-ELISA. Format: cell-based, human. Particulars: THP-1 cells, 10µM compound for 1 hour, then PFA-fixed E. coli (MOI 20) for 24 hours. As to the method: (§2) We identified 45 leading candidates (Figure 1A and Table I) that inhibited both cytokines.
(§3) THP-1 human monocytes (American Tissue Culture Collection-ATCC TIB-202) were plated in 96 well plates at 10^6 cell/ml and incubated with each one of ∼2320 compounds included in the Spectrum collection (Microsource Discovery Systems, Gaylordsville, CT) at 10µM for 1 hour. Cells were then challenged with 4% PFA-fixed DH5α E.coli at a Multiplicity of Infection (MOI) of 20 bacterial cells per THP-1 cell for an additional 24 hours. The cell supernatants were collected and IL-1β and TNF cytokines quantified by DAS-ELISA, using Human IL-1β/IL-1F2 DuoSet® and Human TNF DuoSet® (R&D Systems ®), respectively, according to company's protocol.
(§4) We generated a working subset of The RNAi Consortium (TRC) shRNA lentiviral vector library ^33,33 that allows for the silencing of most of the genes that are either human kinases or phosphatases. This subset was composed of 1440 individually arrayed lentiviral shRNA vectors targeting ∼700 genes, after selecting the most efficient shRNAs (two on average) based on available silencing efficiency data from the Broad Institute of MIT and Harvard. THP-1 cells were plated in 96 well plates at 10^6 cell/ml and infected with shRNA-expressing lentivirus. 48 hrs later infected cells were selected with puromycin. After the 3 days of selection, plates were duplicated. One of the plates was used to measure the cell number using Alamar Blue® cell viability assay (Invitrogeia®), according to manufacturer's instructions. In the other plate, cells were stimulated with 4% PFA-fixed DH5α E.coli at a Multiplicity of Infection (MOI) of 20 bacterial cells per THP-1 cell. Twenty-four hours after stimulation, cell supernatants were collected and IL-1β and TNF cytokines quantified by DAS-ELISA. All data values from IL-1β and TNF secretion assays were normalized by dividing the amount of IL-1β and TNF in the conditioned media 24, 12, 8, 6, 4 or 2 hrs after E. coli stimulation by the number of cells in each well and then by the average concentration per cell of the plate. Results were logarithmic natural transformed. Scores were sorted in ascending order and graphed. We calculated 1.5 SDEVs above and below the mean to identify the genes that changed IL-1β and TNF secretion when silenced. The same approach was used to identify the compounds that changed IL-1β and TNF secretion. The selected genes were submitted to two or more rounds of phenotypic validation.

In series [3] the test system is TNF. Briefly: In vitro chemical screen (Spectrum collection): TNF secretion by E. coli challenged THP-1 cells, DAS-ELISA. As to conditions: THP-1 cells, 10µM compound for 1 hour, then PFA-fixed E. coli (MOI 20) for 24 hours. Format: cell-based, human. The procedure: as §2, §3, §4
Series [4] concerns muHV-4 virus. Briefly: Clearance of a secondary intranasal infection one week after administration. As to conditions: compared with control mice, unpublished data. Format: in vivo.
Series [5] relates to C57BL/6 mice subjected to CLP. The experiment in a line: Cecal ligation and puncture (CLP) mouse model of severe sepsis, survival. Format: in vivo. Particulars: for protection against severe CLP (survival, in words): doxorubicin 0.5ug/g, daunorubicin 0.6µg/g body weight at the time of procedure and 24 hours later, Figure 6. As to the method:
We choose the cecal ligation and puncture (CLP) mouse model to investigate the in vivo effects of epirubicin. In CLP, sepsis results from a polymicrobial infectious abdominal origin, leading to bacteraemia and a systemic inflammatory response^15.
Animal care and experimental procedures were conducted in accordance with Portuguese and US guidelines and regulations after approval by the respective local committees (Instituto de Medicina Molecular and Instituto Gulbenkian de Ciência). All mice used were 8-12 weeks old. Mice were bred and maintained under specific pathogen-free (SPF) conditions. C57BL/6 and C57BL/6 ATM^-/- were obtained from the Instituto Gulbenkian de Ciência (a kind gift from Dr. Vasco Barreto). C57BL/6 Nrf2^-/- mice were provided originally from the RIKEN BioResource Center (Koyadai, Tsukuba, Ibaraki, Japan)^31 and subsequently at the Institute Gulbenkian de Ciência. Cecal Ligation and Puncture was performed as described previously^15.

In series [6] the test system is TNF. Briefly: Concentration-response validation: TNF production by E. coli challenged THP-1 cells. In kind it is cell-based. As to conditions: Homo sapiens; E. coli challenged THP-1 cells (4 hours) after pre-incubation (1 hour) with increasing concentrations; read-out: half-inhibitory concentration (IC50) for TNF. As to the method:
as §1

The subject of series [7] is THP-1 cells. The experiment in a line: Autophagy induction in THP-1 cells, flow cytometry with Cyto-ID Green. Format: cell-based, human. As to conditions: KU-55933 2µM plus epirubicin 1µM (1 hour), PFA-fixed E. coli 4 hours.

In the case of `COc1cccc2c1C(=O)c1c(O)c3c(c(O)c1C2=O)C[C@@](O)(C(=O)CO)C[C@@H]3O[C@H]1C[C@H](N)[C@@H](O)[C@H](C)O1` [Epirubicin hydrochloride], the IC50 in series [1] (Homo sapiens, THP-1, read-out: half-inhibitory concentration (IC50) for IL-1β) worked out at 400 nM; in series [6] it was 500 nM. Also, the “Z score IL1b” value in series [2] was -1,212875226. For the same molecule, the “Z score TNFa” value in series [3] is reported as -4,474857631. Moreover, the “immune competence: clearance of secondary intranasal muHV-4 infection” value in series [4] is recorded as “not immunocompromised”. Further, the “increase of survival of mice subjected to CLP” value in series [5] (i.p. in PBS at the time of CLP and 24hrs later, total 1.2µg/g body weight, no antibiotic, wildtype C57BL/6) is around 80%.
`O=c1cc(-c2cccc3c2Sc2ccccc2S3)oc(N2CCOCC2)c1` [KU-55933]: the “effect of ATM inhibitor pre-treatment on epirubicin-induced autophagy” value in series [7] is given as “eliminates this effect”. In addition, the “rescue of epirubicin-mediated IL-1β down-regulation” value in series [1] (KU-55933 2µM together with epirubicin 1µM, THP-1 cells, E. coli 4 hours) is “could be rescued”.
Consider `COc1cccc2c1C(=O)c1c(O)c3c(c(O)c1C2=O)C[C@@](O)(C(C)=O)C[C@@H]3O[C@H]1C[C@H](N)[C@H](O)[C@H](C)O1` [Daunorubicin], for which the “Z score IL1b” value in series [2] is on record as -0,995459172. In addition, the “Z score TNFa” value in series [3] was -3,007093086. Moreover, the “protection against severe CLP (survival, in words)” value in series [5] is listed as “comparable protection”.
The matching figures for `COc1cccc2c1C(=O)c1c(O)c3c(c(O)c1C2=O)C[C@@](O)(C(=O)CO)C[C@@H]3O[C@H]1C[C@H](N)[C@H](O)[C@H](C)O1` [Doxorubicin]: -2,412138965, -4,071115136 and “comparable protection”.
Turning to `COc1cc([C@@H]2c3cc4c(cc3[C@@H](O[C@@H]3O[C@@H]5CO[C@@H](C)O[C@H]5[C@H](O)[C@H]3O)[C@H]3COC(=O)[C@H]23)OCO4)cc(OC)c1O` [etoposide], in series [5] (etoposide 2.0µg/g body weight, at the time of procedure and 24 hours later, wildtype C57BL/6), the “rescue of mortality induced by CLP” value is given as “only partially rescues the mortality induced by CLP”.
As for `Cc1c2oc3c(C)ccc(C(=O)N[C@@H]4C(=O)N[C@H](C(C)C)C(=O)N5CCC[C@H]5C(=O)N(C)CC(=O)N(C)[C@@H](C(C)C)C(=O)O[C@@H]4C)c3nc-2c(C(=O)N[C@@H]2C(=O)N[C@H](C(C)C)C(=O)N3CCC[C@H]3C(=O)N(C)CC(=O)N(C)[C@@H](C(C)C)C(=O)O[C@@H]2C)c(N)c1=O` [Dactinomycin] (I: T[dV]P[Sar][NMeV] / II: T[dV]P[Sar][NMeV]; ester I:1-I:C, II:1-II:C; linker I:N-II:N via Actinocin(9to1)), in series [2], the “Z score IL1b” value is reported as -1,187827575. In addition, in series [3], the “Z score TNFa” value is -4,13760156.
As for `CC(C)=CCCC1(C)C=Cc2c(O)c3c(c(CC=C(C)C)c2O1)OC12C(=CC4CC1C(C)(C)OC2(C/C=C(/C)C(=O)O)C4O)C3=O` (stereo not shown) [Dihydrogambogic acid], the “Z score IL1b” value in series [2] was -1,48996453. Besides, in series [3], the “Z score TNFa” value is listed as -2,488781431.
The like results for `Cc1cc(/C=C/c2ccc3cc(N(C)C)ccc3[n+]2C)c(C)n1-c1ccccc1` [Pyrvinium pamoate] were, in that order, -1,683811286 and -2,268148981.
Consider `CC1=C(O)C(=O)C=C2C1=CC=C1[C@@]2(C)CC[C@@]2(C)[C@@H]3C[C@](C)(C(=O)O)CC[C@]3(C)CC[C@]12C` [Celastrol], for which the “Z score IL1b” value in series [2] is -1,499560887. Moreover, in series [3], the “Z score TNFa” value was -2,941287145.
For `CCCCCCc1ccc(O)cc1O.Nc1c2ccccc2nc2ccccc12` [Acrisorcin], the “Z score IL1b” value in series [2] is on record as -0,959612692. In series [3], the “Z score TNFa” value was -3,10607388.
The like results for `CC1(C)C(=O)C=C[C@@]2(C)C1=C(O)C(=O)[C@]1(C)[C@@H]2CC[C@@]2(C)[C@H](c3ccoc3)C[C@H]3O[C@]321` [Cedrelone] were, in that order, -1,852572153 and -2,817231786.
The matching figures for Pyrithione zinc: -1,872292546 and -2,951809549.
Take `CN(C)c1ccc(C(=C2C=CC(=[N+](C)C)C=C2)c2ccc(N(C)C)cc2)cc1` [Gentian violet]: the “Z score IL1b” value in series [2] is recorded as -1,835724332. In series [3], the “Z score TNFa” value is -2,696385799.
